Assay results from the NIST ThermoML archive (doi:10.1021/je7001539).
± gives the expanded uncertainty stated by the source.

Details: Liquid

SMILES	vapor or sublimation pressure (243.15 K) [kPa]	vapor or sublimation pressure (253.15 K) [kPa]	vapor or sublimation pressure (263.15 K) [kPa]	vapor or sublimation pressure (272.15 K) [kPa]	vapor or sublimation pressure (283.15 K) [kPa]	vapor or sublimation pressure (293.15 K) [kPa]	vapor or sublimation pressure (303.15 K) [kPa]	vapor or sublimation pressure (313.15 K) [kPa]	vapor or sublimation pressure (323.15 K) [kPa]	vapor or sublimation pressure (333.15 K) [kPa]
CC(C)C [2-methylpropane]	46.2 ± 3.2	72 ± 3.5	107.9 ± 3.9	150.9 ± 4.6	220.1 ± 5.9	301.8 ± 7.6	404.3 ± 10	530.8 ± 13	684.3 ± 17	868.3 ± 22
FC(F)C(F)(F)F [pentafluoroethane]	228.5 ± 6.1	337.9 ± 8.5	483.1 ± 12	650.1 ± 16	908.8 ± 23	1204.5 ± 30	1566.8 ± 39	2005.6 ± 50	2533.2 ± 63	3167.4 ± 79
